In US4050989A, “Process of preparing desacyl-pepsidine with bacillus pumilus” (Eisai Co., Ltd., priority 1974, dated 1977):

Assays:
pepsin = pepsin (Sus scrofa, UniProt P00791); experiment: Pepsin-inhibitory activity (method of Murao and Satoi); format: biochemical
Protocol: viii. Pepsin-inhibitory activity: Pepsin-inhibitory activity of DA-pepsidine was determined using the method reported by S. Murao and S. Satoi in Agr. Biol. Chem. Japan 34 (8) 1265 - 7 (1970). […] While, that of pepsidine C is 0.86 μg.

Solubility in solvents = format: physicochemical

pepsin, sequence (P00791 60-385): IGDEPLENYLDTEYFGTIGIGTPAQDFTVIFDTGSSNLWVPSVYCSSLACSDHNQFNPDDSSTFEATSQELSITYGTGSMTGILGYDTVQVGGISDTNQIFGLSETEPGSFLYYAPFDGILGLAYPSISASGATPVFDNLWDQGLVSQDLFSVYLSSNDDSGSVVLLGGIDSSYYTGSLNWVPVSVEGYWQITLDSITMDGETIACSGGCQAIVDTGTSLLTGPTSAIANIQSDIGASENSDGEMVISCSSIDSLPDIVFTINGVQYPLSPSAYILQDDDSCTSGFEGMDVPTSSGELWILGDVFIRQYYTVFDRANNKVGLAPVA

Structure (SMILES)	amount which gives 50% inhibition against 100 μg of pepsin (pepsin)	Solubility (Solubility in solvents; in acetic acid and methanol)	Solubility (Solubility in solvents; in acetone and ethylether)	Solubility (Solubility in solvents; in ethanol, n-butanol and pyridine)
CC(=O)N[C@H](C(=O)N[C@H](C(=O)NC(CC(C)C)C(O)CC(=O)N[C@@H](C)C(=O)NC(CC(C)C)C(O)CC(=O)O)C(C)C)C(C)C (some centres unmarked) [pepsidine C, reference compound]	0.86 µg	–	–	–
CC(C)CC(NC(=O)[C@H](C)NC(=O)CC(O)C(CC(C)C)NC(=O)[C@@H](NC(=O)[C@@H](N)C(C)C)C(C)C)C(O)CC(=O)O (some centres unmarked) [DA-pepsidine, valyl-valyl-4-amino-3-hydroxy-6-methyl-heptanoyl alanyl-4-amino-3-hydroxy-6-methyl-heptanoic acid]	0.82 µg	Easily soluble	slightly soluble	soluble
